Data published in PubChem BioAssay (NCI).
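Each compound was tested at five concentrations against cells in 96-well plates for 48 hours. Definition used: TGI = concentration required for complete inhibition of growth.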

How the values were obtained:
Assay in all cases: NCI-60 cell line screen, 48 h
[1] = system: EKVX NSCLC
[2] = system: NCI-H226 lung
[3] = system: SNB-19 CNS
[4] = system: HCT-116 colon
[5] = system: RXF 393 renal
[6] = system: OVCAR-8 ovarian
[7] = system: OVCAR-5 ovarian
[8] = system: MCF7 breast
[9] = system: MDA-MB-231 breast
[10] = system: CAKI-1 renal
[11] = system: DU-145 prostate
[12] = system: SN12C renal
[13] = system: OVCAR-3 ovarian
[14] = system: UO-31 renal
[15] = system: PC-3 prostate
[16] = system: RPMI-8226 leukemia
[17] = system: BT-549 breast
[18] = system: MOLT-4 leukemia
[19] = system: HL-60(TB) leukemia
[20] = system: HT29 colon
[21] = system: K-562 leukemia
[22] = system: SF-539 CNS
[23] = system: ACHN renal
[24] = system: SW-620 colon
[25] = system: SK-MEL-5 melanoma
[26] = system: NCI-H23 lung
[27] = system: OVCAR-4 ovarian
[28] = system: SR leukemia
[29] = system: SF-268 CNS
[30] = system: SF-295 CNS
[31] = system: U251 CNS
[32] = system: MDA-MB-435
[33] = system: TK-10 renal
[34] = system: NCI-H522 lung
[35] = system: HOP-92 NSCLC
[36] = system: T-47D breast
[37] = system: IGROV1 ovarian
[38] = system: COLO 205 colon
[39] = system: A498 renal
[40] = system: A549 NSCLC
[41] = system: M14 melanoma
[42] = system: 786-0 renal
[43] = system: CCRF-CEM leukemia
[44] = system: KM12 colon
[45] = system: SK-MEL-28 melanoma
[46] = system: SNB-75 CNS
[47] = system: SK-OV-3 ovarian
[48] = system: HCC-2998 colon
[49] = system: MDA-N
[50] = system: HOP-62 NSCLC
[51] = system: UACC-62 melanoma
[52] = system: NCI-H460 lung
[53] = system: MALME-3M melanoma
[54] = system: UACC-257 melanoma
[55] = system: NCI/ADR-RES ovarian
[56] = system: SK-MEL-2 melanoma
[57] = system: LOX IMVI melanoma
[58] = system: HCT-15 colon

## CC(C)(Br)C(Br)CCC1(C(Br)CBr)CO1 (stereo unspecified)
[1]
  TGI: > 10 µM
[2]
  TGI: > 10 µM
[3]
  TGI: > 10 µM
[4]
  TGI: > 10 µM
[5]
  TGI: > 10 µM
[6]
  TGI: > 10 µM
[7]
  TGI: > 10 µM
[8]
  TGI: > 10 µM
[9]
  TGI: > 10 µM
[10]
  TGI: > 10 µM
[11]
  TGI: > 10 µM
[12]
  TGI: > 10 µM
[13]
  TGI: > 10 µM
[14]
  TGI: > 10 µM
[15]
  TGI: > 10 µM
[16]
  TGI: > 10 µM
[17]
  TGI: > 10 µM
[18]
  TGI: > 10 µM
[19]
  TGI: > 10 µM
[20]
  TGI: > 10 µM
[21]
  TGI: > 10 µM
[22]
  TGI: > 10 µM
[23]
  TGI: > 10 µM
[24]
  TGI: > 10 µM
[25]
  TGI: > 10 µM
[26]
  TGI: > 10 µM
[27]
  TGI: > 10 µM
[28]
  TGI: > 10 µM
[29]
  TGI: > 10 µM
[30]
  TGI: > 10 µM
[31]
  TGI: > 10 µM
[32]
  TGI: > 10 µM
[33]
  TGI: > 10 µM
[34]
  TGI: > 10 µM
[35]
  TGI: > 10 µM
[36]
  TGI: > 10 µM
[37]
  TGI: > 10 µM
[38]
  TGI: > 10 µM
[39]
  TGI: > 10 µM
[40]
  TGI: > 10 µM
[41]
  TGI: > 10 µM
[42]
  TGI: > 10 µM
[43]
  TGI: > 10 µM
[44]
  TGI: > 10 µM
[45]
  TGI: > 10 µM
[46]
  TGI: > 10 µM
[47]
  TGI: > 10 µM
[48]
  TGI: > 10 µM
[49]
  TGI: > 10 µM
[50]
  TGI: > 10 µM
[51]
  TGI: > 10 µM

## COC(=O)C1=C(O)C(C(=O)OC)[C@]2(O)[C@@H](C(=O)OC)[C@H]1[C@H](C)[C@@H](c1ccccc1)[C@@H]2C(=O)OC (stereo partly specified)
[1]
  TGI: > 100 µM
[2]
  TGI: > 100 µM
[52]
  TGI: > 100 µM
[3]
  TGI: > 100 µM
[4]
  TGI: > 100 µM
[53]
  TGI: > 100 µM
[5]
  TGI: > 100 µM
[6]
  TGI: > 100 µM
[7]
  TGI: > 100 µM
[54]
  TGI: > 100 µM
[55]
  TGI: > 100 µM
[9]
  TGI: > 100 µM
[10]
  TGI: > 100 µM
[11]
  TGI: > 100 µM
[12]
  TGI: > 100 µM
[13]
  TGI: > 100 µM
[15]
  TGI: > 100 µM
[17]
  TGI: > 100 µM
[18]
  TGI: > 100 µM
[19]
  TGI: 62.3 µM
[20]
  TGI: > 100 µM
[21]
  TGI: > 100 µM
[22]
  TGI: > 100 µM
[23]
  TGI: > 100 µM
[24]
  TGI: > 100 µM
[25]
  TGI: > 100 µM
[26]
  TGI: > 100 µM
[27]
  TGI: > 100 µM
[56]
  TGI: > 100 µM
[29]
  TGI: > 100 µM
[30]
  TGI: > 100 µM
[31]
  TGI: > 100 µM
[32]
  TGI: > 100 µM
[33]
  TGI: > 100 µM
[34]
  TGI: 47.1 µM
[36]
  TGI: > 100 µM
[57]
  TGI: > 100 µM
[37]
  TGI: 93.5 µM
[38]
  TGI: > 100 µM
[58]
  TGI: > 100 µM
[40]
  TGI: > 100 µM
[41]
  TGI: > 100 µM
[42]
  TGI: > 100 µM
[43]
  TGI: 70.7 µM
[44]
  TGI: > 100 µM
[45]
  TGI: > 100 µM
[46]
  TGI: > 100 µM
[47]
  TGI: > 100 µM
[49]
  TGI: > 100 µM
[50]
  TGI: > 100 µM
[51]
  TGI: > 100 µM

## COC(=O)[C@]1(c2cc3ccccc3[nH]2)CC2CN(C(=O)OCc3ccccc3)C1C=C2OC (stereo partly specified)
[1]
  TGI: > 100 µM
[2]
  TGI: 55 µM
[52]
  TGI: > 100 µM
[3]
  TGI: > 100 µM
[4]
  TGI: > 100 µM
[53]
  TGI: 66.4 µM
[5]
  TGI: 57.6 µM
[6]
  TGI: > 100 µM
[7]
  TGI: 44.2 µM
[54]
  TGI: 49.9 µM
[8]
  TGI: 58.5 µM
[55]
  TGI: > 100 µM
[9]
  TGI: 56.9 µM
[10]
  TGI: > 100 µM
[11]
  TGI: > 100 µM
[12]
  TGI: > 100 µM
[13]
  TGI: 91.4 µM
[15]
  TGI: > 100 µM
[16]
  TGI: 72.1 µM
[17]
  TGI: 82.3 µM
[18]
  TGI: 64.4 µM
[19]
  TGI: 43.7 µM
[20]
  TGI: 63.6 µM
[21]
  TGI: > 100 µM
[22]
  TGI: 55.2 µM
[23]
  TGI: 74.3 µM
[24]
  TGI: > 100 µM
[26]
  TGI: > 100 µM
[27]
  TGI: 98.8 µM
[56]
  TGI: 44 µM
[29]
  TGI: > 100 µM
[30]
  TGI: > 100 µM
[31]
  TGI: > 100 µM
[32]
  TGI: 55.3 µM
[33]
  TGI: > 100 µM
[34]
  TGI: 91.3 µM
[35]
  TGI: 80.6 µM
[36]
  TGI: > 100 µM
[57]
  TGI: > 100 µM
[37]
  TGI: > 100 µM
[38]
  TGI: 38 µM
[58]
  TGI: > 100 µM
[40]
  TGI: > 100 µM
[41]
  TGI: 47 µM
[42]
  TGI: > 100 µM
[43]
  TGI: 69.3 µM
[44]
  TGI: > 100 µM
[45]
  TGI: > 100 µM
[46]
  TGI: 71.2 µM
[47]
  TGI: > 100 µM
[48]
  TGI: 46.8 µM
[49]
  TGI: > 100 µM
[50]
  TGI: > 100 µM
[51]
  TGI: 36.7 µM
